Reference: ChEMBL document CHEMBL3817811, “Protective effect of α-mangostin against iodixanol-induced apoptotic damage in LLC-PK1 cells” (Bioorg Med Chem Lett, 2016)
Active and inactive are the calls of the source. The rule behind the calls is not given here.

Tests used:
LLC-PK1 [1] = test: Inhibition of JNK phosphorylation in pig LLC-PK1 cells at 2.5 to 5 uM preincubated for 2 hrs followed by iodixanol addition measured after 3 hrs by western blot analysis; type: cell-based; details: Sus scrofa
LLC-PK1 [2] = test: Inhibition of ERK phosphorylation in pig LLC-PK1 cells at 2.5 to 5 uM preincubated for 2 hrs followed by iodixanol addition measured after 3 hrs by western blot analysis; type: cell-based; details: Sus scrofa
LLC-PK1 [3] = test: Cytoprotective activity against 25 mg/ml iodixanol-induced apoptosis in pig LLC-PK1 cells assessed as reduction in dead cells preincubated for 2 hrs followed by iodixanol addition measured after 3 hrs by annexin V Alexa Fluor 488/propidium iodide staining based cytometry; type: functional, cell-based; details: Sus scrofa
LLC-PK1 [4] = test: Cytoprotective activity against 25 mg/ml iodixanol-induced cell damage in pig LLC-PK1 cells assessed as inhibition of caspase-3 enzyme activity using DEVD-pNA substrate at 2.5 to 5 uM preincubated for 2 hrs followed by iodixanol addition and subsequent incubation for 3 hrs followed by substrate addition measured after 1 hr by microplate reader analysis; type: functional, cell-based; details: Sus scrofa
LLC-PK1 [5] = test: Cytotoxicity against pig LLC-PK1 cells assessed as reduction in cell viability at 1 to 10 uM incubated for 2 hrs by MTT assay; type: cell-based, Sus scrofa; details: llc-pk1, 2 h
LLC-PK1 [6] = test: Cytoprotective activity against 25 mg/ml iodixanol-induced cell damage in pig LLC-PK1 cells assessed as inhibition of cleaved caspase-3 expression at 2.5 to 5 uM preincubated for 2 hrs followed by iodixanol addition measured after 3 hrs by western blot analysis; type: functional, cell-based; details: Sus scrofa
LLC-PK1 [7] = test: Cytoprotective activity against 25 mg/ml iodixanol-induced cell damage in pig LLC-PK1 cells assessed as restoration of cell viability at 5 uM preincubated for 2 hrs followed by iodixanol addition measured after 3 hrs by MTT assay relative to control; type: functional, Sus scrofa
LLC-PK1 [8] = test: Inhibition of p38 phosphorylation in pig LLC-PK1 cells at 2.5 to 5 uM preincubated for 2 hrs followed by iodixanol addition measured after 3 hrs by western blot analysis; type: cell-based; details: Sus scrofa
LLC-PK1 [9] = test: Cytoprotective activity against 25 mg/ml iodixanol-induced cell damage in pig LLC-PK1 cells assessed as restoration of cell viability preincubated for 2 hrs followed by iodixanol addition measured after 3 hrs by MTT assay; type: functional, cell-based; details: Sus scrofa

**Q.** `COc1c(O)cc2oc3cc(O)c(CC=C(C)C)c(O)c3c(=O)c2c1CC=C(C)C` [MANGOSTIN] was tested. Which inhibition (LLC-PK1 [1]) did it give?
**A.** The inhibition was “Active”.

**Q.** And the inhibition (LLC-PK1 [2])?
**A.** The inhibition was “Active”.

**Q.** What about the Activity (LLC-PK1 [3]) of the same compound?
**A.** The Activity was “Dose-dependent effect”.

**Q.** What about the inhibition (LLC-PK1 [4]) of the same compound?
**A.** Its inhibition is “Active”.

**Q.** What about the Activity (LLC-PK1 [5]) of the same compound?
**A.** The Activity was “Non-toxic”.

**Q.** What about the inhibition (LLC-PK1 [6]) of the same compound?
**A.** Its inhibition is “Active”.

**Q.** What about the Activity (LLC-PK1 [7]) of the same compound?
**A.** The Activity was “<=90.42%”.

**Q.** And the inhibition (LLC-PK1 [8])?
**A.** The inhibition was “Active”.

**Q.** And the Activity (LLC-PK1 [9])?
**A.** The Activity was “Dose-dependent effect”.
